According to patent US20010006673A1, “LUTEIN- CONTAINING SUPPLEMENT AND PROCESS FOR ENHANCING IMMUNE RESPONSE IN ANIMALS” (priority 1998, published 2001):

Assays:
[1] = test system: lymphocyte subsets (CD5, CD4, CD8, MHC class II, CD21); test: Lymphocyte subsets by flow cytometry, dogs; assay type: in vivo, Beagle dogs
Protocol: Blood leukocytes were separated using Histopaque-1119 (Sigma, St. Louis, Mo.). Cells were washed three times with phosphate-buffered saline (PBS, pH 7.4) and contaminating erythrocytes were lysed in NH4CI (8.4 g/L). Lymphocyte subsets were determined by flow cytometry (FACScan, Becton Dickinson, San Jose, Calif.). Isolated mononuclear cells were resuspended to 1×10^7 cells/mL in PBS supplemented with 2% gamma globulin-free serum, 5% goat serum and 0.2 g/L sodium azide. For immunofluorescence analysis, a total of 5×10^5 cells were incubated for 30 minutes on ice with optimal concentrations of mouse anti-canine monoclonal antibody (mAb). The mAb used were specific for the following lymphocyte subsets: total T cells (anti-CD5), T-helper cells (anti-CD4), T-cytotoxic/suppressor cells (anti-CD8), lymphocytes expressing major histocompatability complex (MHQ class II antigens (anti-MHC class II), and B cells (anti-CD21). Cells were then washed three times and incubated with a secondary antibody, fluorescein isothiocyanate (FITC)-conjugated goat F(ab′)2 anti-mouse IgG+IgM (H+L) (Caltag, Burlingame, Calif.), for 30 minutes on ice to visualize the bound mAb. Stained cells were fixed in 4% paraformaldehyde in preparation for acquisition. Appropriate negative controls were included to correct for background fluorescence. Data were expressed as the percentage of positive-staining cells corrected for cells stained nonspecifically with the secondary antibody.

[2] = test system: Canine thyroid adenocarcinoma cells; test: NK cell cytotoxicity, dogs; assay type: in vivo, Beagle dogs
Protocol: Canine thyroid adenocarcinoma cells were used as target cells in assessing NK cell cytotoxic activity. This cell line was previously shown to be susceptible to killing by canine NK cell. Target cells were cultured in a T75 flask with 20 mL minimum essential medium (MEM; Sigma Chem. Co., St. Louis, Mo.) supplemented with 10% fetal calf serum (FC S), 100 U/mL of penicillin and 100 μg/mL of streptomycin. When confluent, target cells were trypsinized, washed 3 times and resuspended to 5×10^5 cells/mL in complete medium (RPMI-1640+10% FCS+100 U/mL of penicillin+100 μ/mL of streptomycin). Triplicate 100 μL aliquots of the target cells were pipetted into 96-well U-bottom plates (Costar, Cambridge, Mass.) and incubated for 8 hours to allow cell adherence. Lymphocytes (effector cells; 100 μL) isolated by percoll separation (as described above) were then added to the target cells to provide an effector:target cell (E:T) ratio of 10:1. After 10 hours of incubation at 37° C., 20 μl of a substrate containing 5 μg of 3-(4,5-dimethylthiazol-2-yl)-2,5-diphenyltetrazolium bromide (MTT) was added. […] Optical density was measured at 570 nm using a microplate reader. The percentage of NK cell-specific lysis was calculated as follows: Specific cytotoxicity (%)=100×{1−[(OD of target cells and effector cells−OD of effector cells)/(OD of target cells)]}

[3] = test system: cats; test: Delayed type hypersensitivity (DTH) response in cats; assay type: in vivo, Tabby cats; details: for DTH response to vaccine: week 6, 72 h post-injection
[4] = test system: dogs; test: Delayed type hypersensitivity (skin induration) response in dogs; assay type: in vivo, Beagle dogs; details: for DTH response to PHA / DTH response to vaccine: dogs
Protocol: Skin induration response was assessed in all dogs on weeks 0, 6, and 12. Dogs were injected intradermally in the flank area with saline (8.5 g/L; control), an attenuated polyvalent vaccine containing canine distemper virus, canine adenovirus type-2, canine parainfluenza virus and parvovirus (Vanguard 5, Smithkline Beacham, West Chester, Pa.; specific antigen), and PHA (0.5 g/L; nonspecific antigen). The doses of vaccine and PHA used were previously determined to provide optimal skin response in Beagle dogs of similar age. The injection site was clipped and wiped with 70% ethyl alcohol. The injection volume was 100 μL. Skin induration was measured at 0, 24, 48 and 72 h post-injection with the aid of a pressure-sensitive digital micrometer (Mitsutoyo, Tokyo, Japan) and response was expressed as a percentage of skin thickness measured at 0 h.

[5] = test system: malondialdehyde (MDA) production; test: Lipid peroxidation (TBARS) assay, dog plasma; assay type: in vivo, Beagle dogs; details: dogs
Protocol: Plasma lipid peroxidation activity was determined by measuring malondialdehyde (MDA) production. The standard used was 1,1,3,3-tetramethoxypropane JMP) (Sigma Chem. Co., St. Louis, Mo.). Duplicate 500 μL plasma samples were pipetted into 15 ml, glass tubes and 3 mL of 10 g/L phosphoric acid and 1 ml of 6 g/L TBA solution were added. The mixture was boiled in a water bath for 45 minutes. Tubes were allowed to cool and the TBA-MDA complex was extracted with 4 ml of n-butanol. The butanol layer was separated by centrifugation at 1,000×g for 10 minutes and absorbance was measured on at 532 nm (Beckman, Fullerton, Calif.). The TBARS activity was expressed in nmole MDA/L plasma.

Structure (SMILES): CC1=C[C@H](O)CC(C)(C)[C@H]1/C=C/C(C)=C/C=C/C(C)=C/C=C/C=C(C)/C=C/C=C(C)/C=C/C1=C(C)C[C@@H](O)CC1(C)C [lutein]
- CD21+ B cell population ([1]; dogs): did not significantly influence
- % CD8+ T cytotoxic cells vs control ([1]; dogs fed 20 mg lutein, week 8): significantly higher
- % MHC class II cell populations vs unsupplemented dogs ([1]; dogs fed 20 mg lutein, week 8 and 12): elevated
- % CD4+ cells ([1]; dogs fed 5 and 10 mg lutein, week 12): higher
- CD8+ population ([1]; dogs, week 12): not influenced
- Percentages of CD5+ cells vs unsupplemented controls ([1]; dogs, weeks 4 and 8, statistically significant with 5 and 20 mg lutein): higher
- Effect on NK cell cytotoxic activity [2]: did not significantly influence
- Specific lysis of target cells by PBMC, average ([2]; across all treatments and sampling periods, E:T 10:1): 49.1±1.1%
- DTH response to vaccine ([3]; cats fed 5 or 10 mg lutein): significantly higher
- DTH response to Con A ([3]; cats, week 6): no significant dietary effect
- DTH response to vaccine ([3]; cats, all doses): significant dose-related
- DTH response to Con A and vaccine ([3]; cats, week 12): no significant treatment difference
- DTH response to PHA vs unsupplemented dogs ([4]; dogs fed 20 mg lutein, week 12): significantly higher
- DTH response to PHA ([4]; week 6, 48 and 72 h): no significant treatment difference
- DTH response to vaccine ([4]; week 6, 48 and 72 h post-injection): dose-related
- DTH response to vaccine ([4]; week 6, 24 h): not significant
- DTH response to PHA ([4]; week 6, 24 h post-injection): dose-related
- DTH response to vaccine ([4]; week 12): no significant dietary effect
- DTH response to PHA ([4]; week 12, 24, 48 and 72 h, all doses): general dose-dependent increase
- Effect on plasma TBARS activity [5]: did not significantly affect
- Plasma TBARS activity, average ([5]; across all treatments and periods): 95.8±0.1 nmol MDA/L
